Data taken from patent publication US4668685A (priority 1985, dated 1987).
Where a name gives a salt, the structure may show the parent alone.

Legend:
[1] = Oral nalbuphine bioavailability, monkey; conditions: 4 mg nalbuphine/kg, % dose, two values, 4 mg/kg
[2] = Oral nalbuphine bioavailability, human
[3] = Oral 3-hydroxymorphinan bioavailability (nalbuphine), rat; conditions: plasma, 20 mg/kg
[4] = Oral 3-hydroxymorphinan bioavailability, dog (drug and prodrugs); conditions: 4 mg/kg
[5] = Plasma hydrolysis of nalbuphine prodrug, rat plasma
[6] = Plasma hydrolysis of nalbuphine prodrug, monkey plasma
[7] = Plasma hydrolysis of nalbuphine prodrug, dog plasma
[8] = Plasma hydrolysis of nalbuphine prodrug, human plasma
[9] = Oral 3-hydroxymorphinan bioavailability, species not printed at the place; conditions: 10 mg naloxone/kg, species not given

| SMILES | half-life at 0.28 µM [5] [h] | half-life at 0.28 µM [6] [h] | half-life at 0.28 µM [7] [h] | half-life at 0.28 µM [8] [h] | also measured |
| --- | --- | --- | --- | --- | --- |
| Oc1ccc2c3c1O[C@H]1[C@@H](O)CC[C@@]4(O)[C@@H](C2)N(CC2CCC2)CC[C@]314 [nalbuphine, (-)-17-(Cyclobutylmethyl)-4,5α-epoxymorphinan-3,6α,14-triol] | – | – | – | – | Oral nalbuphine bioavailability (F) [1]: 1.6%; bioavailability ([1]; plasma, po, Oral nalbuphine bioavailability (F)): 0.9%; Oral nalbuphine bioavailability (F) ([2]; 45 mg tablet or solution, % dose): 14%; bioavailability ([2]; plasma, po, 45 mg): 14%; bioavailability [3]: 2.7 ± 0.4%; Oral nalbuphine bioavailability (F) ([4]; oral, 4 mg nalbuphine/kg, % dose, mean ± SE): 5.4 ± 0.9%; bioavailability ([4]; plasma, po): 5.4% |
| Nc1ccccc1C(=O)Oc1ccc2c3c1O[C@H]1[C@@H](O)CC[C@@]4(O)[C@@H](C2)N(CC2CCC2)CC[C@]314 [Example 2, Nalbuphine-3-anthranilate hydrochloride] | 1.5 | 3.3 | 14.6 | 45 | – |
| C=CCN1CC[C@]23c4c5ccc(O)c4O[C@H]2C(=O)CC[C@@]3(O)[C@H]1C5 [naloxone HCl, (-)-17-Allyl-4,5α-epoxy-3,14-dihydroxymorphinan-6-one] | – | – | – | – | Plasma naloxone concentrations after oral naloxone HCl [9]: close to the assay detection limits and as such were erratic |
| CC(=O)Oc1ccccc1C(=O)Oc1ccc2c3c1O[C@H]1[C@@H](O)CC[C@@]4(O)[C@@H](C2)N(CC2CCC2)CC[C@]314 [Example 1, Nalbuphine-3-(acetylsalicylate)] | 0.2 | 0.6 | 2.8 | 6.2 | – |
